From PubChem BioAssay (NCI)
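Protocol summary: plate cells (96-well), add compound at 5 concentrations, incubate 48 h, interpolate endpoints linearly. At the GI50, growth is halved. TGI: total growth inhibition.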

What was measured:
Experiment in all cases: NCI anticancer screen, dose series, 48 h
[1] = tested on: SW-620 colon
[2] = tested on: CCRF-CEM leukemia
[3] = tested on: NCI-H522 lung
[4] = tested on: TK-10 renal
[5] = tested on: SK-MEL-28 melanoma
[6] = tested on: SNB-75 CNS
[7] = tested on: KM12 colon
[8] = tested on: MDA-MB-231 breast
[9] = tested on: PC-3 prostate
[10] = tested on: NCI-H23 lung
[11] = tested on: RPMI-8226 leukemia
[12] = tested on: MOLT-4 leukemia
[13] = tested on: UACC-257 melanoma
[14] = tested on: OVCAR-8 ovarian
[15] = tested on: DU-145 prostate
[16] = tested on: SR leukemia
[17] = tested on: HCT-116 colon
[18] = tested on: M14 melanoma
[19] = tested on: SK-MEL-2 melanoma
[20] = tested on: SN12C renal
[21] = tested on: NCI-H460 lung
[22] = tested on: SF-295 CNS
[23] = tested on: MDA-MB-435
[24] = tested on: SK-OV-3 ovarian
[25] = tested on: HOP-62 NSCLC
[26] = tested on: NCI/ADR-RES ovarian
[27] = tested on: A549 NSCLC
[28] = tested on: NCI-H226 lung
[29] = tested on: COLO 205 colon
[30] = tested on: LOX IMVI melanoma
[31] = tested on: UACC-62 melanoma
[32] = tested on: ACHN renal
[33] = tested on: MCF7 breast
[34] = tested on: RXF 393 renal
[35] = tested on: OVCAR-5 ovarian
[36] = tested on: OVCAR-4 ovarian
[37] = tested on: OVCAR-3 ovarian
[38] = tested on: HCC-2998 colon
[39] = tested on: U251 CNS
[40] = tested on: SF-539 CNS
[41] = tested on: HT29 colon
[42] = tested on: SK-MEL-5 melanoma
[43] = tested on: K-562 leukemia
[44] = tested on: HS 578T breast
[45] = tested on: MALME-3M melanoma
[46] = tested on: HCT-15 colon
[47] = tested on: UO-31 renal
[48] = tested on: A498 renal
[49] = tested on: BT-549 breast
[50] = tested on: SF-268 CNS
[51] = tested on: IGROV1 ovarian
[52] = tested on: SNB-19 CNS
[53] = tested on: HL-60(TB) leukemia
[54] = tested on: T-47D breast
[55] = tested on: HOP-92 NSCLC
[56] = tested on: 786-0 renal
[57] = tested on: CAKI-1 renal
[58] = tested on: EKVX NSCLC

CN(Cc1cnc2nc(N)nc(N)c2n1)c1ccc(C(=O)NC(CCC(=O)O)C(=O)O)cc1 (stereo not drawn)
GI50 [1]: 0.0456 µM
TGI [1]: > 100 µM
GI50 [2]: 0.056 µM
TGI [2]: > 100 µM
GI50 [3]: 0.721 µM
TGI [3]: > 100 µM
GI50 [4]: > 100 µM
TGI [4]: > 100 µM
GI50 [5]: 21 µM
TGI [5]: > 100 µM
GI50 [6]: > 100 µM
TGI [6]: > 100 µM
GI50 [7]: 0.0875 µM
TGI [7]: > 100 µM
GI50 [8]: > 24 µM
TGI [8]: > 100 µM
GI50 [9]: 2.56 µM
TGI [9]: > 100 µM
GI50 [10]: 0.354 µM
TGI [10]: > 100 µM
GI50 [11]: 0.629 µM
TGI [11]: > 100 µM
GI50 [12]: 0.389 µM
TGI [12]: > 100 µM
GI50 [13]: 0.955 µM
TGI [13]: > 100 µM
GI50 [14]: 0.0532 µM
TGI [14]: > 100 µM
GI50 [15]: 0.204 µM
TGI [15]: > 100 µM
GI50 [16]: 0.05 µM
TGI [16]: > 100 µM
GI50 [17]: 0.0416 µM
TGI [17]: > 100 µM
GI50 [18]: 0.0777 µM
TGI [18]: > 100 µM
TGI [19]: > 100 µM
GI50 [20]: 0.0595 µM
TGI [20]: > 100 µM
GI50 [21]: 0.05 µM
TGI [21]: > 100 µM
GI50 [22]: 0.175 µM
TGI [22]: 36.5 µM
GI50 [23]: 0.0478 µM
TGI [23]: > 100 µM
GI50 [24]: 6.04 µM
TGI [24]: > 100 µM
GI50 [25]: 0.394 µM
TGI [25]: > 100 µM
GI50 [26]: 0.0722 µM
TGI [26]: > 100 µM
GI50 [27]: 0.0605 µM
TGI [27]: > 100 µM
GI50 [28]: 0.505 µM
TGI [28]: > 100 µM
TGI [29]: > 100 µM
GI50 [30]: 0.0372 µM
TGI [30]: > 100 µM
GI50 [31]: 0.145 µM
TGI [31]: > 100 µM
GI50 [32]: 0.292 µM
TGI [32]: > 100 µM
TGI [33]: > 100 µM
TGI [34]: > 100 µM
GI50 [35]: 0.668 µM
TGI [35]: > 100 µM
GI50 [36]: > 100 µM
TGI [36]: > 100 µM
GI50 [37]: 1.23 µM
TGI [37]: > 100 µM
GI50 [38]: 0.0992 µM
TGI [38]: > 100 µM
GI50 [39]: 0.435 µM
TGI [39]: > 100 µM
GI50 [40]: 0.234 µM
TGI [40]: > 25.3 µM
GI50 [41]: 0.0564 µM
TGI [41]: > 100 µM
GI50 [42]: 0.443 µM
TGI [42]: > 100 µM
TGI [43]: > 100 µM
GI50 [44]: > 100 µM
TGI [44]: > 100 µM
GI50 [45]: 43 µM
TGI [45]: > 100 µM
GI50 [46]: 0.0623 µM
TGI [46]: > 100 µM
GI50 [47]: 0.27 µM
TGI [47]: > 100 µM
TGI [48]: > 100 µM
GI50 [49]: 6.51 µM
TGI [49]: > 100 µM
GI50 [50]: 0.247 µM
TGI [50]: > 100 µM
GI50 [51]: 0.809 µM
TGI [51]: > 100 µM
TGI [52]: > 100 µM
GI50 [53]: 0.0742 µM
TGI [53]: > 100 µM
GI50 [54]: > 100 µM
TGI [54]: > 100 µM
TGI [55]: > 100 µM
GI50 [56]: 0.0428 µM
TGI [56]: > 100 µM
GI50 [57]: 0.0544 µM
TGI [57]: > 100 µM
GI50 [58]: 0.399 µM
TGI [58]: > 100 µM
